The record followed here is article PMC4109680, “Identification and Preclinical Pharmacology of the γ-Secretase Modulator BMS-869780” (International Journal of Alzheimer's Disease, 2014).

The subject of one assay is Aβ1-42 (H4-APPsw). Put plainly: Aβ1-42 time-resolved fluorescence immunoassay in H4-APPsw cell cultures. The assay is classed as cell-based, human. Particulars: H4-APPsw cultures treated overnight. The method, then: H4-APPsw cell cultures were maintained on Dulbecco's modified Eagle's medium (DMEM) supplemented with L-glutamine (2 mM), fetal bovine serum (10%), and G418 (100 μg/mL). […] Aβ1-42 and Aβ1-40 assays, and Notch inhibition assays, were carried out as described previously. Mouse embryonic fibroblasts deficient in PS1 and PS2 (MEF dKO) were passaged twice per week in DMEM/F-12 medium, consisting of a 1 : 1 mixture of DMEM and F-12 nutrient mixture supplemented with 10% fetal bovine serum, penicillin, and streptomycin. For expression of human presenilin-1 in MEF dKO cells, the full length human presenilin-1 cDNA open reading frame was cloned between the BamHI and XhoI sites of the vector pcDNA5/FRT (Invitrogen), placing presenilin-1 expression under the control of the CMV promoter. The M146V mutated allele was introduced into the presenilin-1 expression construct by polymerase chain reaction using the oligonucleotide primers 5′-[…]-3′ and 5′-[…]-3 (QuikChange kit, Invitrogen). MEF dKO cultures were cotransfected with DNA constructs expressing APP-CTF, encoding the C-terminal 99 amino acids of APP [61] and either the human presenilin-1 or presenilin-1 M146V allele. Transfected cultures were incubated overnight at 37°C in 5% CO2 atmosphere and then harvested, resuspended in DMEM/F-12 medium, dispensed into 96-well culture plates, and incubated for 6 hours at 37°C in 5% CO2 atmosphere. Culture medium was then replaced with Ultraculture serum free medium (Lonza, Rockland, ME) with or without compounds at a range of concentrations and incubated overnight.
IC50 determinations for Aβ1-42 and Aβ1-40 in H4-APPsw cultures in 384-well format were determined using homogeneous time-resolved fluorescence immunoassays as previously described. The principle of these assays is illustrated in Figures 1(c) and 1(d). In other experiments using H4-APPsw cultures, Aβ was quantified by ELISA; for Aβ1-42 the combination of monoclonal antibodies was 26D6 and 565-HRP; for Aβ1-40 it was TSD and 26D6-HRP, and for Aβ1-x it was 4G8 and 26D6-HRP. In some experiments a novel 4-plex Aβ electrochemiluminescence immunoassay was used (Mesoscale Discovery catalog number N45ZA-1). Briefly, the 4-plex was carried out in 96-well format, with 4 separate spots of capture antibodies in each well. […] For Aβ in transiently transfected PS1/PS2 dKO fibroblasts, Aβ1-42 was quantified using an ELISA kit (WACO), and Aβ1-40 was quantified by ELISA as described above for H4-APPsw cultures. […] For the rat and mouse experiments illustrated in Figures 7 and 8, brain samples were prepared by solid phase extraction, and endogenous rat brain Aβ1-42 and Aβ1-40 were quantified by ELISA as previously described for wild type mice. […]

The next assay deals with APP-CTF (H4-APPsw). Nature of the assay: Western blot of APP-CTFα and APP-CTFβ in H4-APPsw cell lysates. The assay is classed as cell-based, human. Particulars: overnight; for increase in APP-CTFα: BMS-869780 100-3000 nM averaged across doses, BMS-299897 30-300 nM; for APP-CTFβ levels: high concentrations. The method, then: For western blotting of APP-CTF in cell lysates, H4-APPsw cell cultures in T-75 flasks were rinsed with DPBS, harvested, isolated by centrifugation, and stored at −80°C until needed. Cells were suspended in SDS sample buffer (20,000 cells/μL), boiled for 10 min, and centrifuged 3000 ×g for 5 min. Total protein content was determined using an assay kit (EZQ, Invitrogen cat number R33200). Proteins were separated by electrophoresis on Bis-Tris 16% polyacrylamide gels and transferred to nitrocellulose filters. APP-CTFβ was detected using 26D6-HRP, and APP-CTFα was detected using ct695 polyclonal (Invitrogen, cat number 51-2700) and secondary goat anti-rabbit horseradish peroxidase conjugate (Zymed, catalog number 62-6120). Chemiluminescence images were captured and quantified using an imaging station (Fuji model number LAS-3000). The ct695 western blots also show APP-CTFβ, which migrates as a fainter band above APP-CTFα under these conditions. To confirm the consistency of sample loading, the APP-CTF western blots were reprobed for glyceraldehyde-3-phosphate dehydrogenase (GAPDH) using monoclonal 1D4 (Enzo Life Sciences, cat number CSA-335).
Figure 4 BMS-869780 had minimal effect on APP-CTF accumulation in vitro. H4-APPsw cell cultures were treated overnight with the indicated concentrations of BMS-869780, BMS-299897 or vehicle (0.1% DMSO). (a) Cells were harvested and analyzed by western blotting for APP-CTFα, APP-CTFβ, and GAPDH. Lane 1; culture treated with vehicle 0.1% DMSO. Lanes 2–5; cultures treated with BMS-869780 at 100 nM, 300 nM, 1000 nM, or 3000 nM, respectively. Lanes 6–8; cultures treated with BMS-299897 at 30 nM, 100 nM, or 300 nM, respectively. (b) Levels of Aβ1-42 (red; left Y-axis), Aβ1-40 (green; right Y-axis), and Aβ1-x (grey; right Y-axis) were quantified.
In general terms: In western blotting, separated proteins are transferred to a membrane and probed.

One may read the IC50 as the concentration at which inhibition is half-maximal. Take `C[C@H](c1ccc(F)cc1CCCC(=O)O)N(c1cc(F)ccc1F)S(=O)(=O)c1ccc(Cl)cc1` [BMS-299897, reference compound]: in the assay with Aβ1-42 (H4-APPsw) (Homo sapiens), the concentration for half-maximal inhibition (IC50) stood at 0.47 nM. Moreover, in the assay with APP-CTF (H4-APPsw), the “increase in APP-CTFα” value is reported as 8 fold and the APP-CTFβ levels entry is reported as “not affected”.

In the case of `COc1cc(Nc2nc3n(n2)CCCC[C@H]3c2ccc(F)cc2)ccc1-n1cnc(Cl)c1` [BMS-869780], the 50% inhibitory concentration (IC50) with Aβ1-42 (H4-APPsw) was 5.1 nM; in the assay on Aβ1-42 (H4-APPsw) (Homo sapiens), 5.6 nM. For the same molecule, the “increase in APP-CTFα” value with APP-CTF (H4-APPsw) is recorded as 1.4 fold. The APP-CTFβ levels entry with APP-CTF (H4-APPsw) is given as “not affected”.
